Where “and” joins values, the source holds several entries; their conditions need not be identical. Equal entries are not always repeated. Numbered stars: 1 amine (or outer) side, 2 acyl side, 3 side chain; on linkers, the order of the positions; unused ones are H or OH. Bridge positions count the residues as written; N and C are the ends. Square brackets hold non-standard residues; d marks the D form. Peptide text beside a SMILES is read from it. I, II: the chains in the order shown. Actinocin(1to9) = Cc1c2oc3c(C)ccc(C(=O)[*:2])c3nc-2c(C(=O)[*:1])c(N)c1=O; NMeV = CN[C@H](C(=O)O)C(C)C; Sar = CNCC(=O)O
Key:
[1] = Cytotoxicity against human HM02 cells; assay type: functional
[2] = (§1) Cytotoxicity against human Hep G2 cells; assay type: functional, HepG2
[3] = as §1; assay type: functional; conditions: HepG2
Staphylococcus aureus = experiment: Antimicrobial activity against Staphylococcus aureus at 50 ug after 24 hrs by disk diffusion method; assay type: functional; conditions: read-out: IZ
Bacillus subtilis = experiment: Antimicrobial activity against Bacillus subtilis at 50 ug after 24 hrs by disk diffusion method; assay type: functional; conditions: read-out: IZ
Escherichia coli = experiment: Antimicrobial activity against Escherichia coli at 50 ug after 24 hrs by disk diffusion method; assay type: functional; conditions: read-out: IZ

SMILES	GI50 ([1]; Homo sapiens, HM02) [nM]	TGI ([1]; Homo sapiens, HM02) [nM]	GI50 ([2]; Homo sapiens, HepG2) [nM]	TGI ([2]; Homo sapiens, HepG2) [nM]	GI50 [3] [nM]	TGI [3] [nM]	zone of inhibition at 50 µg/disc (Staphylococcus aureus) [mm]	zone of inhibition at 50 µg/disc (Bacillus subtilis) [mm]	zone of inhibition at 50 µg/disc (Escherichia coli) [mm]	TGI [1] [nM]	TGI [2]
Cc1c2oc3c(C)ccc(C(=O)N[C@@H]4C(=O)N[C@H](C(C)C)C(=O)N5[C@H](C(=O)N(C)CC(=O)N(C)[C@@H](C(C)C)C(=O)O[C@@H]4C)[C@@H](O)C[C@@H]5C)c3nc-2c2c(c1=O)OC[C@H]1OC(=O)[C@H](C)N(C)C(=O)CN(C)C(=O)[C@@H]3CCCN3C(=O)[C@@H](C(C)C)NC(=O)[C@H]1NC2=O [ACTINOMYCIN G5]	2100	4400	2700	7800	1400	2500	10	20	0	–	–
Nc1cc2nc3ccccc3oc-2cc1=O	4450	10000	6600	26000	610	2000	–	–	–	–	–
Cc1c2oc3c(C)ccc(C(=O)N[C@@H]4C(=O)N[C@H](C(C)C)C(=O)N5[C@H](C(=O)N(C)CC(=O)N(C)[C@@H](C(C)C)C(=O)O[C@@H]4C)[C@@H](O)C[C@@H]5C)c3nc-2c(C(=O)OC[C@H](O)[C@@H]2NC(=O)[C@H](C)N(C)C(=O)CN(C)C(=O)[C@@H]3CCCN3C(=O)[C@@H](C(C)C)NC2=O)c(N)c1=O [ACTINOMYCIN G6]	–	1000	–	–	1400	4600	0	0	0	2000	1600 nM and > 7900 nM
Cc1c2oc3c(C)ccc(C(=O)N[C@@H]4C(=O)N[C@H](C(C)C)C(=O)N5CCC[C@H]5C(=O)N(C)CC(=O)N(C)[C@@H](C(C)C)C(=O)O[C@@H]4C)c3nc-2c(C(=O)N[C@@H]2C(=O)N[C@H](C(C)C)C(=O)N3CCC[C@H]3C(=O)N(C)CC(=O)N(C)[C@@H](C(C)C)C(=O)O[C@@H]2C)c(N)c1=O [DACTINOMYCIN] (I: T[dV]P[Sar][NMeV] / II: T[dV]P[Sar][NMeV]; ester I:1-I:C, II:1-II:C; linker I:N-II:N via Actinocin(1to9))	1.6	6.4	1.2	52	1.9	8.8	30	55	20	–	–
Cc1c2oc3c(C)ccc(C(=O)N[C@@H]4C(=O)N[C@H](C(C)C)C(=O)N5[C@H](C(=O)N(C)CC(=O)N(C)[C@@H](C(C)C)C(=O)O[C@@H]4C)[C@@H](O)C[C@@H]5C)c3nc-2c(C(=O)N[C@@H]2C(=O)N[C@H](C(C)C)C(=O)N3CCC[C@H]3C(=O)N(C)CC(=O)N(C)[C@@H](C)C(=O)O[C@@H]2CO)c(N)c1=O [ACTINOMYCIN G3]	130	550	1100	> 7900	460	1600	21	33	0	–	–
Cc1c2oc3c(C)ccc(C(=O)N[C@@H]4C(=O)N[C@H](C(C)C)C(=O)N5[C@H](C(=O)N(C)CC(=O)N(C)[C@@H](C(C)C)C(=O)O[C@@H]4C)[C@@H](O)C[C@@H]5C)c3nc-2c(C(=O)N[C@@H]2C(=O)N[C@H](C(C)C)C(=O)N3CCC[C@H]3C(=O)N(C)CC(=O)N(C)[C@@H](C)C(=O)O[C@@H]2C)c(N)c1=O [ACTINOMYCIN G4]	65	520	640	1400	400	1500	–	–	–	–	–
Cc1c2oc3c(C)ccc(C(=O)N[C@@H]4C(=O)N[C@H](C(C)C)C(=O)N5[C@H](C(=O)N(C)CC(=O)N(C)[C@@H](C(C)C)C(=O)O[C@@H]4C)[C@@H](O)C[C@@H]5C)c3nc-2c(C(=O)N[C@@H]2C(=O)N[C@H](C(C)C)C(=O)N3CCC[C@H]3C(=O)N(C)CC(=O)N(C)[C@@H](C)C(=O)O[C@@H]2CCl)c(N)c1=O [ACTINOMYCIN G2]	1.3	4.3	2.9	18	3.9	12	27	45	15	–	–
